In US12653858B2, “Herbal composition, preparation method thereof and method for preventing or treating respiratory disorder by administering the same” (priority 2021, dated 2026):

What was measured:
[1] = system: ACE2; assay: ACE2 degradation in WI-38 cells (cycloheximide time course, BafA1 lysosome inhibition); type: cell-based, human; settings: WI-38 cells pretreated with BafA1 10 μM 30 min, then JGF 10 μg/mL 2 h
Method: Actin was used as the internal control. […] Actin was used as the internal control.
For example, it was examined whether JGF-induced ACE2 degradation is dependent on proteasome or lysosomal systems. Initially, the half-life of ACE2 in WI-38 cells was analyzed following treatment with cycloheximide (CHX), which is a ribosome inhibitor that blocks protein synthesis.

[2] = system: SARS-CoV-2 S-mediated membrane fusion; assay: SARS-CoV-2 spike-mediated cell-cell fusion (syncytium formation) assay; type: cell-based

SMILES | ACE2 level after JGF treatment with lysosome inhibitor [1] | Formation of syncytium [2]
CO/C1=C\C(C)=C\[C@@H](C)[C@@H](O)[C@@H](C)C/C(C)=C/C=C/[C@H](OC)[C@@H]([C@@H](C)[C@@H](O)[C@H](C)[C@@]2(O)C[C@@H](O)[C@H](C)[C@@H](C(C)C)O2)OC1=O [BafA1] | recovered the ACE2 level | 
CN(C)C(=O)COC(=O)Cc1ccc(OC(=O)c2ccc(NC(=N)N)cc2)cc1 [camostat] |  | inhibition of syncytium formation
